Measurements reported in article PMC12752606, “METTL10‐Mediated PIAS3 Methylation Links Purine Metabolism to Gastric Cancer Progression” (Advanced Science, 2025).

Key:
Assay type in all cases: biochemical
METTL10 = biological target: T1, METTL10 (Homo sapiens, UniProt Q5JPI9); test: MTase-Glo in vitro methylation assay, METTL10-mediated PIAS3 methylation
T1 construct: His; made in house; host or cells: E. coli BL21
Procedure: For the in vitro methylation assay, His‐METTL10 (1 µg) was incubated with recombinant human Histone H4 protein (20 ng; Abcam, ab198115) or GST‐PIAS3 (100 ng) of in methylation reaction buffer (50 mM Tris‐HCl (pH 8.0), 20 mM KCl, 5 mM DTT, 4 mM EDTA) containing 20 µM S‐(5′‐adenosyl)‐L‐methionine chloride dihydrochloride (SAM) at 37 °C for 1 h. The reaction was terminated by boiling the samples in SDS‐PAGE loading buffer, and the products were analyzed by immunoblotting.
To identify METTL10 inhibitors, an in‐silico screening was first conducted on an in‐house compound library comprising approximately 6000 structurally diverse molecules. Molecular docking simulations with the METTL10 protein identified 111 candidate compounds for further analysis. The methyltransferase activity of these candidates was assessed using the MTase‐Glo Methyltransferase Assay (Promega, V7601) according to the manufacturer's protocol. Briefly, the candidate compounds were preincubated with His‐METTL10 protein (1 µg) at 37 °C for 1 h in a methylation reaction buffer (50 mM Tris‐HCl (pH 8.0), 20 mM KCl, 5 mM DTT, 4 mM EDTA, and 20 µM SAM), followed by the addition of either the Histone H4 or PIAS3 peptide substrate for an additional 1 h. The reaction was then subjected to MTase‐Glo reagent buffer for 30 min, followed by MTase‐Glo detection buffer for another 30 min. Luminescence was measured using a luminometer (Promega), and IC50 values were calculated using GraphPad Prism 8 software.

DNMT1 = DNMT1 (Homo sapiens, UniProt P26358); test: Off-target methyltransferase profiling (MTase-Glo)
Procedure: (§1) To evaluate the off‐target effects of LZQ‐02‐023‐01 on methyltransferase activity, a panel of enzymes was assessed using the MTase‐Glo Methyltransferase Assay (Promega), following the manufacturer's instructions. The assay was performed by ICE Bioscience Inc. Briefly, LZQ‐02‐023‐01 was serially diluted 4‐fold in DMSO to generate a 10‐point concentration gradient, and the resulting solutions were dispensed into 384‐well white assay plates using an Echo acoustic liquid handler (Labcyte). Plates were centrifuged at 1000 rpm for 1 min to ensure even compound distribution. Following a 10‐min preincubation at 25 °C, 2 µL of a substrate solution containing S‐adenosylmethionine (SAM) and the specific methyltransferase substrate (Table S7, Supporting Information) was added to each well. After a brief centrifugation, plates were incubated at 25 °C for 180 min to allow the enzymatic methylation reaction to proceed. Subsequently, 1 µL of MTase‐Glo reagent was added, followed by centrifugation and incubation at 25 °C for 45 min. Then, 5 µL of MTase‐Glo detection solution was introduced into each well, and the plates were incubated for an additional 45 min at 25 °C after centrifugation.
(§2) Luminescence signals were directly proportional to methyltransferase activity, were recorded using a microplate reader (BMG LABTECH). Percent inhibition was calculated by normalizing luminescence intensities of compound‐treated wells to DMSO‐treated controls, and IC50 values were calculated using GraphPad Prism 8 software.

DOT1L = DOT1L (Homo sapiens, UniProt Q8TEK3); test: Off-target methyltransferase profiling (MTase-Glo)
Procedure: as §1, §2

EZH1 = EZH1 (Homo sapiens, UniProt Q92800); test: Off-target methyltransferase profiling (MTase-Glo)
Procedure: as §1, §2

EZH2 = EZH2 (Homo sapiens, UniProt Q15910); test: Off-target methyltransferase profiling (MTase-Glo)
Procedure: as §1, §2

EZH2 [A677G] = EZH2 [A677G] (Homo sapiens, UniProt Q15910, A677G); test: Off-target methyltransferase profiling (MTase-Glo)
Procedure: as §1, §2

EZH2 [A738T] = EZH2 [A738T] (Homo sapiens, UniProt Q15910, A733T); test: Off-target methyltransferase profiling (MTase-Glo)
Procedure: as §1, §2

EZH2 [Y641F] = EZH2 [Y641F] (Homo sapiens, UniProt Q15910, Y641F); test: Off-target methyltransferase profiling (MTase-Glo)
Procedure: as §1, §2

EZH2 [Y641N] = EZH2 [Y641N] (Homo sapiens, UniProt Q15910, Y641N); test: Off-target methyltransferase profiling (MTase-Glo)
Procedure: as §1, §2

GLP = GLP (Homo sapiens, UniProt Q9H9B1); test: Off-target methyltransferase profiling (MTase-Glo)
Procedure: as §1, §2

METTL3/14 = METTL3/14 (Homo sapiens, UniProt Q86U44); test: Off-target methyltransferase profiling (MTase-Glo)
Procedure: as §1, §2

MLL3 = MLL3 (Homo sapiens, UniProt Q8NEZ4); test: Off-target methyltransferase profiling (MTase-Glo)
Procedure: as §1, §2

NSD1 = NSD1 (Homo sapiens, UniProt Q96L73); test: Off-target methyltransferase profiling (MTase-Glo)
Procedure: as §1, §2

NSD3 = NSD3 (Homo sapiens, UniProt Q9BZ95); test: Off-target methyltransferase profiling (MTase-Glo)
Procedure: as §1, §2

PRMT1 = PRMT1 (Homo sapiens, UniProt Q99873); test: Off-target methyltransferase profiling (MTase-Glo)
Procedure: as §1, §2

PRMT5 = PRMT5 (Homo sapiens, UniProt O14744); test: Off-target methyltransferase profiling (MTase-Glo)
Procedure: as §1, §2

PRMT5+MTA = PRMT5+MTA (Homo sapiens, UniProt O14744); test: Off-target methyltransferase profiling (MTase-Glo)
Procedure: as §1, §2

PRMT6 = PRMT6 (Homo sapiens, UniProt Q96LA8); test: Off-target methyltransferase profiling (MTase-Glo)
Procedure: as §1, §2

PRMT8 = PRMT8 (Homo sapiens, UniProt Q9NR22); test: Off-target methyltransferase profiling (MTase-Glo)
Procedure: as §1, §2

SETD1A = SETD1A (Homo sapiens, UniProt O15047); test: Off-target methyltransferase profiling (MTase-Glo)
Procedure: as §1, §2

SETD1B = SETD1B (Homo sapiens, UniProt Q9UPS6); test: Off-target methyltransferase profiling (MTase-Glo)
Procedure: as §1, §2

SETD2 = SETD2 (Homo sapiens, UniProt Q9BYW2); test: Off-target methyltransferase profiling (MTase-Glo)
Procedure: as §1, §2

SUV39H1 = SUV39H1 (Homo sapiens, UniProt O43463); test: Off-target methyltransferase profiling (MTase-Glo)
Procedure: as §1, §2

SUV39H2 = SUV39H2 (Homo sapiens, UniProt Q9H5I1); test: Off-target methyltransferase profiling (MTase-Glo)
Procedure: as §1, §2

SUV420H1 = SUV420H1 (Homo sapiens, UniProt Q4FZB7); test: Off-target methyltransferase profiling (MTase-Glo)
Procedure: as §1, §2

T1 sequence (Q5JPI9 1-291 isoform Q5JPI9-1): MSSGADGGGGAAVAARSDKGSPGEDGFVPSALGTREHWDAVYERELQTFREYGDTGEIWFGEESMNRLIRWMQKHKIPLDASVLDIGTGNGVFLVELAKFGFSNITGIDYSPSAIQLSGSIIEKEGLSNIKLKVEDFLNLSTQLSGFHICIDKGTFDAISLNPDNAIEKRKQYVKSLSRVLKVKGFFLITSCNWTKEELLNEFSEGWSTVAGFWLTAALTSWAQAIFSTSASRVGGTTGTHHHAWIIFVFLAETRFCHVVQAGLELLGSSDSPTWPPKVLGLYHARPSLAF
Chain of EZH2 (Q15910 whole entry, species assumed): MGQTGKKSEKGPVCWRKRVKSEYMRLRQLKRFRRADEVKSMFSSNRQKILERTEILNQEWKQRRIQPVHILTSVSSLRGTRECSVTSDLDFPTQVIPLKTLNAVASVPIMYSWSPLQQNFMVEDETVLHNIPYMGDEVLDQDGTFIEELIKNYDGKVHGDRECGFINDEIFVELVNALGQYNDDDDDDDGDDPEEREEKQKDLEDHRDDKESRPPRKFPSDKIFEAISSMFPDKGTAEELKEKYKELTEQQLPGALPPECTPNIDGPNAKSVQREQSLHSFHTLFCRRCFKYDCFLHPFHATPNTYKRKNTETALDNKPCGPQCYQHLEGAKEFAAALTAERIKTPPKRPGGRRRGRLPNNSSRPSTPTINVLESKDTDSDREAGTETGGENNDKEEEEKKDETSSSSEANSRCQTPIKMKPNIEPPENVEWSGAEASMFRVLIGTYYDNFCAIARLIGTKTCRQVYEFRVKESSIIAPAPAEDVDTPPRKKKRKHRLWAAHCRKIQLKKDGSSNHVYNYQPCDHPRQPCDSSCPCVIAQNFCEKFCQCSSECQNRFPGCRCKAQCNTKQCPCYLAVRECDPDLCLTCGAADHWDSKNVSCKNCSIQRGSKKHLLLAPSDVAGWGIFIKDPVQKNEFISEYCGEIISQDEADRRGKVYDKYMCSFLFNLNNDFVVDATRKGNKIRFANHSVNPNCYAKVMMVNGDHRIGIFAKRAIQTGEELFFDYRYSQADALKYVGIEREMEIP
Chain of EZH2 (O75530 whole entry partner, species assumed): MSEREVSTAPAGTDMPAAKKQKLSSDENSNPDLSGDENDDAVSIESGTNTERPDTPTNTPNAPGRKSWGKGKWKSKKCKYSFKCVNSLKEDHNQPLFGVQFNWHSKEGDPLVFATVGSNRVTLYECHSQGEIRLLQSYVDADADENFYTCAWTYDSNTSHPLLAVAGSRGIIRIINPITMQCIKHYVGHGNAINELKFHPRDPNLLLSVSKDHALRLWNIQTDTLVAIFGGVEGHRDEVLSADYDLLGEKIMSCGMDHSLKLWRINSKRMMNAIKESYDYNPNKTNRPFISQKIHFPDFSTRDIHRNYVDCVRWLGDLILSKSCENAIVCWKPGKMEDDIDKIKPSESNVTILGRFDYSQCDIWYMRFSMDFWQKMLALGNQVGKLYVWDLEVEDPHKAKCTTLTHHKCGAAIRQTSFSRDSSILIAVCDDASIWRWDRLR
Chain of EZH2 (Q15022 whole entry partner, species assumed): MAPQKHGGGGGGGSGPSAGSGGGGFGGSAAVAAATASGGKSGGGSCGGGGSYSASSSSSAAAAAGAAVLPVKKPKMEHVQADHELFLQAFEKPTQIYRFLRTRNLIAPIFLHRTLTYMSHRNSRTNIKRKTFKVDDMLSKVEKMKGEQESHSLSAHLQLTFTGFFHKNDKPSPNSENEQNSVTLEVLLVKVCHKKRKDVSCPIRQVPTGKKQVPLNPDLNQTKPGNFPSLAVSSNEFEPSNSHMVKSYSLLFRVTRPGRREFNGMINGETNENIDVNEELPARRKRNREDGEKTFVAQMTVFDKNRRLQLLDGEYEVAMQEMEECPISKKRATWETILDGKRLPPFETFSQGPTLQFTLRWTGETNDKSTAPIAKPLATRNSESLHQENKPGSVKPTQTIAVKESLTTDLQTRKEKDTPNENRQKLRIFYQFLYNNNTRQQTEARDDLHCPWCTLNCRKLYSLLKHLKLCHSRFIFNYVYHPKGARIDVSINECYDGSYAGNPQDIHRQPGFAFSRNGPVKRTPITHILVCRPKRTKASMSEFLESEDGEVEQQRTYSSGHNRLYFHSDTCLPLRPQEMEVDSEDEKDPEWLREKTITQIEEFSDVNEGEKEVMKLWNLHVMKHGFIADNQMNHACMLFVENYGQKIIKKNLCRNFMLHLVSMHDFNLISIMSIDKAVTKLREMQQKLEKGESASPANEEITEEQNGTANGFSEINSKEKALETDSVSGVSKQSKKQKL
Chain of EZH2 (Q09028 whole entry partner, species assumed): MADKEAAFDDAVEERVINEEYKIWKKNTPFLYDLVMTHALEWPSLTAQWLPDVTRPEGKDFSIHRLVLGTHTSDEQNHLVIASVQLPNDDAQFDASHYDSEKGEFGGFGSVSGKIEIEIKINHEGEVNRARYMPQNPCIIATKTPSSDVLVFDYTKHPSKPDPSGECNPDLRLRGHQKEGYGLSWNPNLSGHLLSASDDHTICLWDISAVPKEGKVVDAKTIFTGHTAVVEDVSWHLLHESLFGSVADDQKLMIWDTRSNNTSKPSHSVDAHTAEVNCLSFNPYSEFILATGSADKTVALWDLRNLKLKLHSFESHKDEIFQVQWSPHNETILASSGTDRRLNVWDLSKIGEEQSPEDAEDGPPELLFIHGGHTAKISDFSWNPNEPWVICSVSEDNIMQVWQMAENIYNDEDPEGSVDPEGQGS
Chain of PRMT5 (O14744 whole entry, species assumed): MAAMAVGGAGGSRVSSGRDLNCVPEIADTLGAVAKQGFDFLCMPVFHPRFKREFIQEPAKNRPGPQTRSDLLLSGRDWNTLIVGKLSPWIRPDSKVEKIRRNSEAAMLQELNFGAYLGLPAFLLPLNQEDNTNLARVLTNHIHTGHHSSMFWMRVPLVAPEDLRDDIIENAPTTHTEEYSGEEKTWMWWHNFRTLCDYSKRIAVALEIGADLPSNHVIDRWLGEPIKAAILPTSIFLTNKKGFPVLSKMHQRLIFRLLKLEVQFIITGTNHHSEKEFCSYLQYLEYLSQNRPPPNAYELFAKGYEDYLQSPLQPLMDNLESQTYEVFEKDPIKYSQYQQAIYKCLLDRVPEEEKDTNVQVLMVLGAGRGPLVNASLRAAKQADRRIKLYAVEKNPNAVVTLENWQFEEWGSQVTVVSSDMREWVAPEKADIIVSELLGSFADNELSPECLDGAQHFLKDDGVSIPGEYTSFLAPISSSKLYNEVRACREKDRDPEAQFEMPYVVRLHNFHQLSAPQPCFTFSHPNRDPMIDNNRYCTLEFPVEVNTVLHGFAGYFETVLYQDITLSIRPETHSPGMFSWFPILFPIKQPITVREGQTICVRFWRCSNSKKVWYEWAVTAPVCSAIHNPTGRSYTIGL
Chain of PRMT5 (Q9BQA1 whole entry partner, species assumed): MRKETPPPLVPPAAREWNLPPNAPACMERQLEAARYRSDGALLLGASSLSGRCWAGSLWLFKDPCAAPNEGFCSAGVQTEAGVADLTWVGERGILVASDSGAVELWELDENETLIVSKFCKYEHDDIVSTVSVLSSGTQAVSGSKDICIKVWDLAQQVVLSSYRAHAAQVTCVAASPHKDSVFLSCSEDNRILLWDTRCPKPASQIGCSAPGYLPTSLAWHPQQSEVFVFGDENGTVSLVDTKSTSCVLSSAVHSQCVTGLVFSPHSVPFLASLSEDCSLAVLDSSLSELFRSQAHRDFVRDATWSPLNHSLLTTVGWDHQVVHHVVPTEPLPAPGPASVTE
Chain of PRMT5+MTA (O14744 whole entry, species assumed): as the sequence (O14744 whole entry, species assumed) above
Chain of PRMT5+MTA (Q9BQA1 whole entry partner, species assumed): as the sequence (Q9BQA1 whole entry partner, species assumed) above
Chain of PRMT1 (Q99873 whole entry, species assumed): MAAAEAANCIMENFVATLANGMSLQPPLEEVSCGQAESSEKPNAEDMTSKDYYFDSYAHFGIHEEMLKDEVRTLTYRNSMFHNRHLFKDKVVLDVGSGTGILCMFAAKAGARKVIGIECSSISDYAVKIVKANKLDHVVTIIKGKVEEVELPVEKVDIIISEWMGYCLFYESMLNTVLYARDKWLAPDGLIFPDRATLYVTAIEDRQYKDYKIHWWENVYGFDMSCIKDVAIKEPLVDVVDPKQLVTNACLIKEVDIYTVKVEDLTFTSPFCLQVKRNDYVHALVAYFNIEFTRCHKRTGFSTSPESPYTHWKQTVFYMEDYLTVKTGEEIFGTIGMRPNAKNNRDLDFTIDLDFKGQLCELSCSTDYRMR

Structure (SMILES): Cc1ccc(Nc2ncc3c(n2)N(C)C(=O)N(c2cccc(N)c2)C3)cn1 [LZQ-02-023-01, Three‐(3‐aminophenyl)‐1‐methyl‐7‐((6‐methylpyridin‐3‐yl)amino)‐3,4‐dihydropyrimido [4,5‐d] pyrimidin‐2 (1H)‐one]
- Structure-activity relationship, rank among structural analogs (METTL10; METTL10 activity toward GST-PIAS3): most potent inhibitor among its structural analogs
- Rank of potency among the 22 hit compounds (METTL10; METTL10 activity toward PIAS3): strongest potency
- IC50 (METTL10; MTase-Glo, bacteria-purified GST-PIAS3 substrate, read-out: IC50, inhibition of METTL10 activity toward PIAS3): 11.8 µM
- IC50 (DNMT1): 23.8 µM
- IC50 (DOT1L): 13.1 µM
- IC50 (EZH1): 28.9 µM
- IC50 (EZH2): 14.7 µM
- IC50 (EZH2 [A677G]): 13.7 µM
- IC50 (EZH2 [A738T]): 7.47 µM
- IC50 (EZH2 [Y641F]): 2.94 µM
- IC50 (EZH2 [Y641N]): 12.4 µM
- IC50 (GLP): 23.9 µM
- IC50 (METTL3/14): 16.8 µM
- IC50 (MLL3): 9.47 µM
- IC50 (NSD1): 13.3 µM
- IC50 (NSD3): 7.36 µM
- IC50 (PRMT1): 19.7 µM
- IC50 (PRMT5): 13 µM
- IC50 (PRMT5+MTA): 13.9 µM
- IC50 (PRMT6): 11 µM
- IC50 (PRMT8): 26.9 µM
- IC50 (SETD1A): 18.8 µM
- IC50 (SETD1B): 8.97 µM
- IC50 (SETD2): 18.6 µM
- IC50 (SUV39H1): 18.6 µM
- IC50 (SUV39H2): 11 µM
- IC50 (SUV420H1): 13.3 µM
